Laboratory results reported in publication PMC7073080, “Characterization of Convergent Suppression by UCL-2077 (3-(Triphenylmethylaminomethyl)pyridine), Known to Inhibit Slow Afterhyperpolarization, of erg-Mediated Potassium Currents and Intermediate-Conductance Calcium-Activated Potassium Channels” (International Journal of Molecular Sciences, 2020).
pIC50: −log10 of the molar value.

Target: T1, erg-mediated K+ channel (Kerg, KV11.1) (Rattus norvegicus, UniProt O08962)
T1 construct: gene Kcnh2; native channel in pituitary GH3 cells
T1 sequence (O08962 1-1163): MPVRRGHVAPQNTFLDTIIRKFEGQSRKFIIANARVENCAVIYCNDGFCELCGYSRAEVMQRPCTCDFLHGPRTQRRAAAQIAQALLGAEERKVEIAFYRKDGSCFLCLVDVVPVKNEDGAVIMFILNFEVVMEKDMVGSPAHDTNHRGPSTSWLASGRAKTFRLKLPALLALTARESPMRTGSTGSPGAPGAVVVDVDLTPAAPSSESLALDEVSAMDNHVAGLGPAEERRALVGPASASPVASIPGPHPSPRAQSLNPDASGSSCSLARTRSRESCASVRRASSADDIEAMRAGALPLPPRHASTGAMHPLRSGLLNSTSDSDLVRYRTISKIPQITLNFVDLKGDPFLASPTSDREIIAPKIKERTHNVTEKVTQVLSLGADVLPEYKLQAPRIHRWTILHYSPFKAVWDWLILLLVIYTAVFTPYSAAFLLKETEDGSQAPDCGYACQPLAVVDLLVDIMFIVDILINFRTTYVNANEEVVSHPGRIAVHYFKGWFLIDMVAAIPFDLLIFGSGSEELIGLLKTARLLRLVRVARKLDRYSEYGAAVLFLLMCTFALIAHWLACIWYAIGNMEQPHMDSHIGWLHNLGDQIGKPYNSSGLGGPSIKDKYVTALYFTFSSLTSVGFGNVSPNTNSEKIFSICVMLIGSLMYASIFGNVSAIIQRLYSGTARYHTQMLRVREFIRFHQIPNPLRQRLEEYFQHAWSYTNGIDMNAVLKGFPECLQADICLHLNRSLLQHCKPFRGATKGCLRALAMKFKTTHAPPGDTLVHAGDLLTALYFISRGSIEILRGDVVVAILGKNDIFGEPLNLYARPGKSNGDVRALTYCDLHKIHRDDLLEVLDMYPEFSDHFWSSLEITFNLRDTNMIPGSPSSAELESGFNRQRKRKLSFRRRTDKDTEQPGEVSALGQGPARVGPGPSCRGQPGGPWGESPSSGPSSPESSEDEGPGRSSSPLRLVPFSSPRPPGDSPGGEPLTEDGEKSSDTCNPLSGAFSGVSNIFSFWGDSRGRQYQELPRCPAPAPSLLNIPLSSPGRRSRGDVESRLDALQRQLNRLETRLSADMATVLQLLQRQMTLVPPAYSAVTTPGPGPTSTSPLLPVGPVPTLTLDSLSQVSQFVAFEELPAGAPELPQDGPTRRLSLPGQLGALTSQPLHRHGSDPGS
Assay: whole-cell patch clamp, concentration-response of IK(erg); KCNH2 siRNA knockdown
Assay type: cell-based
Details: gh3 cells

Work on c1ccc(C(NCc2cccnc2)(c2ccccc2)c2ccccc2)cc1 [UCL-2077, 3-(triphenylmethylaminomethyl)pyridine] yielded a pIC50 of 5.33.
